This is an account of results in PMC6332339, “Synthesis, Characterization, and Anti-Cancer Activity of Some New N′-(2-Oxoindolin-3-ylidene)-2-propylpentane hydrazide-hydrazones Derivatives” (Molecules, 2015).

Molecules are shown by their SMILES. “Also recorded” adds a separate entry of the source.

The test system of data set [1] is HepG2 human liver cancer cell line. The experiment in a line: MTT cytotoxicity assay in HepG2 cells. It counts as cell-based. As to conditions: 24 h treatment, mean ± SD; for IC50: Homo sapiens. On the procedure:
(§1) The cyto-toxicity activity was measured in vitro in HepG2, Jurkat, and HEK 293 cells using the MTT […] colorimetric assay. For comparison, 5-Fluorouracil (5-FU) was used as a standard anti-cancer drug. Treatment with dimethylsulfoxide (DMSO) was used as a control for the cancer cells.
(§2) The stock concentration of the entire compound in DMSO was 10 mM and this concentration was used to prepare the working dilution. The final DMSO concentration used in the experiments was ≤0.5% as the working concentration. Human liver cancer cell lines (HepG2), human leukemia cell line (Jurkat), and human embryonic kidney cell line (HEK293) cells were cultured in high glucose Dulbecco’s Modified Eagle Medium (DMEM: Life technologies cat #11995073) supplemented with 10% Fetal bovine serum (FBS: Life technologies cat #16000044) in a humidified incubator with 5% CO2 at 37 °C. Around 2 ×10^3 cells were seeded in each well of a 24-well cell culture plate and were allowed to adhere and grow for 24 h. The Jurkat cells grow in suspension so they were cultured and allowed to grow overnight before the addition of compounds. The compounds in serial dilutions (1, 3, 15, 45, 100, and 300 μM) were added after 24 h of culture and the cells were cultured for another 24 h at 37 °C. The cell viability was determined in each experiment using MTT 1-(4,5-dimethylthiazol-2-yl)-3,5-diphenylformazan colorimetric assay. Briefly, the treated or untreated cells were trypsenized and centrifuged, and the resulting pellet was re-suspended in 100 μL of DMEM serum-free medium and incubated at 37 °C for 2 h. After incubation, 20 μL of MTT solution (5 mg/mL in PBS: Sigma Aldrich cat #M2003) was added to each well and further incubated for 2 h. The plate was centrifuged at […] for 10 min then the medium was removed from each well and 2-propanol containing 0.04 M HCl was added to dissolve the formazan produced in the cells. The optical density of the formazan product in solution was measured with a microplate reader at 540 nm. The experiment was conducted in triplicate. Data were calculated as percent of cell viability by the following formula:
(§3) % cell viability = (Mean absorbance in test wells/Mean absorbance in control wells) × 100 (1)
(§4) The IC50 values were calculated from the means of six different concentrations by Bio Data Fit 1.02 using the software Bio Tool Kit (Version 300; Chang Bioscience Inc., Castro Valley, CA, USA) and online program http://ic50.tk/index.html.

The subject of data set [2] is Jurkat human leukaemia cell line. The experiment in a line: MTT cytotoxicity assay in Jurkat cells. In kind it is cell-based. As to conditions: 24 h treatment, mean ± SD. On the procedure:
as §1, §2, §3, §4
In general terms: Tetrazolium dyes change colour on reduction, which living cells bring about.

The subject of data set [3] is HEK293 human embryonic kidney cell line. The experiment in a line: MTT cytotoxicity assay in normal HEK293 cells. The settings on record: 24 h treatment, mean ± SD; for IC50: Homo sapiens. It counts as cell-based. The protocol: as §1, §2, §3, §4
In data set [4] the test system is human tumour cell lines (HepG2 and Jurkat). Briefly: MTT assay, summary over the tested human tumour cell lines. It counts as cell-based. The settings on record: summary over HepG2 and Jurkat cells. The protocol:
as §1, §2, §3, §4

What is called IC50 is the concentration at which inhibition is half-maximal. The melting point is the temperature, or range, at which the solid turns liquid. `CCCC(CCC)C(=O)N/N=C1\C(=O)N(Cc2ccccc2)c2ccccc21` [Compound 4f, (Z) N′-(1-Benzyl-2-oxoindolin-3-ylidene)-2-propylpentane Hydrazide]: the melting point is 170 to 172 °C. In addition, in data set [1], the “IC50 (μM) HepG2” value is “no anti-cancer activity” and the IC50 was over 100 µM. The IC50 in data set [2] (Homo sapiens, Jurkat, 24 h) is over 100 µM. The IC50 in data set [3] is over 100 µM.
Consider `CCCC(CCC)C(=O)N/N=C1\C(=O)N(CCBr)c2ccccc21` [Compound 4g, (Z)-N′-(1-(2-Bromoethyl)-2-oxoindolin-3-ylidene)-2-propylpentane Hydrazide], for which the melting point lay in the range of 90 to 91 °C. Besides, in data set [1], the “IC50 (μM) HepG2” value is reported as “no anti-cancer activity” and the IC50 is over 100 µM. This compound returned an IC50 in data set [2] (Homo sapiens) of over 100 µM. The compound also showed an IC50 in data set [3] of 45.4 ± 48.9 µM.
For the compound `CCCC(CCC)C(=O)N/N=C1\C(=O)Nc2ccccc21` [Compound 4a, (Z) N′-(2-Oxoindolin-3-ylidene)-2-propylpentane Hydrazide], the melting point is 175 to 176 °C. In data set [1], the “IC50 (μM) HepG2” value was “inactive; also recorded: no anti-cancer activity” and the IC50 is over 100 µM. In addition, in data set [2], the IC50 worked out at 3.15 µM and the “IC50 (μM) Jurkat” value is “strong activity”. The same compound had an IC50 in data set [2] (Homo sapiens, Jurkat, 24 h) of 3.14 µM. The same compound had an IC50 in data set [4] of 3 to 7 µM. Also, in data set [3], the “IC50 (μM) HEK293” value was “inactive” and the IC50 was over 100 µM.
Compound `CCCC(CCC)C(=O)NNC(=O)C(=O)c1ccccc1NC(C)=O` [Compound 4h, N-(2-(2-Oxo-2-(2-(2-propylpentanoyl)hydrazinyl)acetyl)phenyl) Acetamide] came in with a melting point of 180 to 181 °C. Besides, in data set [1], the “IC50 (μM) HepG2” value is listed as “no anti-cancer activity” and the IC50 was over 100 µM. The same compound had an IC50 in data set [2] (Homo sapiens, Jurkat, 24 h) of over 100 µM. The same compound displayed an IC50 in data set [3] of over 100 µM.
For `CCCC(CCC)C(=O)O` [Compound 1, Valproic acid, reference compound], the “IC50 (μM) HepG2” value in data set [1] is listed as “did not show promising anti-cancer activity”. The IC50 in data set [1] worked out at 69.7 ± 40.8 µM; in data set [2] (Homo sapiens, Jurkat, 24 h) it was 79.4 ± 40.7 µM; in data set [3], 63 ± 38.2 µM.
`CN1C(=O)C(=O)c2ccccc21` [Compound 3e]: the IC50 was 2.82 µM in data set [1], 7.13 µM in data set [2] (Homo sapiens), 3 to 7 µM in data set [4] and over 100 µM in data set [3]. In data set [3], the “IC50 (μM) HEK293” value was “no activity”.
Consider `O=C1Nc2ccccc2C1=O` [Compound 3a], for which the “IC50 (μM) HepG2” value in data set [1] is on record as “no anti-cancer activity”. The IC50 is over 100 µM in data set [1]; over 100 µM in data set [2] (Homo sapiens, Jurkat, 24 h); 16.7 ± 50 µM in data set [3].
In the case of `CCCC(CCC)C(=O)NN` [Compound 2, Valproic Hydrazide], in data set [1], the “IC50 (μM) HepG2” value is listed as “did not show promising anti-cancer activity”. Further, the IC50 in data set [1] was 68.5 ± 37.1 µM; in data set [2] (Homo sapiens, Jurkat, 24 h), over 100 µM; in data set [3] it was over 100 µM.
In turn, `CCCC(CCC)C(=O)N/N=C1\C(=O)N(C)c2ccccc21` [Compound 4e, (Z) N′-(1-Methyl-2-oxoindolin-3-ylidene)-2-propylpentane Hydrazide] yielded a melting point of 154 to 156 °C. The compound further registered an IC50 in data set [1] of 7.61 µM. Inhibition in data set [2] (Homo sapiens, Jurkat, 24 h) was half-maximal at 3.19 µM (IC50). The IC50 in data set [4] lay within 3 to 7 µM. Besides, in data set [3], the “IC50 (μM) HEK293” value is given as “no activity” and the IC50 was over 100 µM.
In turn, `CCCC(CCC)C(=O)N/N=C1\C(=O)Nc2ccc(F)cc21` [Compound 4d, (Z) N′-(5-Fluoro-2-oxoindolin-3-ylidene)-2-propylpentane Hydrazide] gave a melting point of 180 to 182 °C. In data set [1], the IC50 was over 100 µM. The same compound returned an IC50 in data set [2] (Homo sapiens, Jurkat, 24 h) of over 100 µM. Also, the IC50 in data set [3] was over 100 µM.
On to `O=c1[nH]cc(F)c(=O)[nH]1` [Compound 5-FU, 5-Fluorouracil, reference compound], for which the IC50 in data set [1] was 32.1 ± 48.1 µM; in data set [2] (Homo sapiens, Jurkat, 24 h), 51.2 ± 47.4 µM; in data set [4], 32 to 50 µM; in data set [3], over 100 µM.
As to `CCCC(CCC)C(=O)N/N=C1\C(=O)Nc2ccc(Br)cc21` [Compound 4b, (Z) N′-(5-Bromo-2-oxoindolin-3-ylidene)-2-propylpentane Hydrazide], the melting point lay within 172 to 173 °C. In addition, in data set [1], the “IC50 (μM) HepG2” value is “no anti-cancer activity” and the IC50 is over 100 µM. In data set [2] (Homo sapiens, Jurkat, 24 h), this compound registered an IC50 of over 100 µM. The same compound returned an IC50 in data set [3] of 26.1 ± 31.3 µM.
With `CC(=O)N1C(=O)C(=O)c2ccccc21` [Compound 3h, N-acetylisatin], the “IC50 (μM) HepG2” value in data set [1] is “no anti-cancer activity”. In addition, the IC50 in data set [1] is over 100 µM; in data set [2] (Homo sapiens, Jurkat, 24 h) it was over 100 µM; in data set [3], over 100 µM.
Compound `CCCC(CCC)C(=O)N/N=C1\C(=O)Nc2ccc(Cl)cc21` [Compound 4c, (Z) N′-(5-Chloro-2-oxoindolin-3-ylidene)-2-propylpentane Hydrazide] registered a melting point of 154 to 156 °C. Also, half-maximal inhibition in data set [1] (IC50) required 4.39 µM. In addition, the “IC50 (μM) Jurkat” value in data set [2] was “strong activity”. Further, the IC50 in data set [2] (Homo sapiens, Jurkat, 24 h) is 2.9 µM. This compound also gave an IC50 in data set [4] of 3 to 7 µM. In data set [3], this compound displayed an IC50 of 4.77 µM.
As to `O=C1C(=O)N(Cc2ccccc2)c2ccccc21` [Compound 3f], the IC50 in data set [1] is 3.13 µM; in data set [2] (Homo sapiens, Jurkat, 24 h) it was 3.13 µM; in data set [4] it was 3 to 7 µM; in data set [3], over 100 µM. Moreover, the “IC50 (μM) Jurkat” value in data set [2] is given as “strong activity”. Besides, the “IC50 (μM) HEK293” value in data set [3] is reported as “no activity”.
